system: cNOTCH1sub; assay: Cell-based γ-secretase cleavage assay, cNOTCH1sub in H4 cells (Aβ-like peptide ELISA); design: species or system human; conditions: Aβ-like peptide in media, GSI overnight
Protocol: (§1) Using these cell‐based γ‐secretase cleavage assays, we systematically investigated the substrate inhibition profile of BMS‐906024, MK‐0752, PF‐308414, RO4929097, Semagacestat, and DAPT. We treated H4 cells stably expressing cNOTCH1‐4sub with 4 pM to 10 μM of GSIs (Fig 5A and Table 2) and measured the Aβ‐like peptide secreted into the media.
(§2) For the cell‐based assay, all substrates contain a human NOTCH4 signal peptide sequence ([…]), amyloid β peptide (Aβ1–25/K16A) epitope tag followed by the juxtamembrane region (JMD) of the given substrate and a FLAG tag ([…]) at the COOH‐terminal. K16A mutant was created to decrease potential α‐secretase cleavage. The cDNAs were generated by gene synthesis conducted by Genscript. A schematic representation of the substrates is provided in Fig 4A, and sequences of the cDNAs and the proteins are provided in Appendix Fig S6. For clarity, these substrates are referred to as cell‐based assay substrates (e.g., NOTCH1 is cNOTCH1sub). Substrate cDNAs were cloned into pCDNA3.1 (Invitrogen, Carlsbad, CA, USA) for expression in H4 cells (ATCC, Manassas, VA).
(§3) H4 cells were cultured in Opti‐mem media (Thermo‐Fisher) supplemented with Hyclone 6% fetal bovine serum (GE, Logan, Utah, USA) and 1% penicillin/streptomycin (Life Technologies, Grand Island, NY, USA). pCDNA3.1 plasmids containing the substrate cDNAs were transfected into H4 cells using FuGENE HD reagent (Madison, WI, USA). Stable cell lines were established using G418 selection. […] Cells and conditioned media were used for WB, IP, and ELISA.
(§4) Sandwich ELISAs used for Aβ detection were performed as previously described (Murphy et al, 1999; Ran et al, 2014). Briefly, Aβ and Aβ‐like peptides in conditioned media were captured with Ab5 antibody and detected with horseradish peroxidase labeled mAb 4G8 (Biolegend). Synthetic Aβ1‐40 was used as standard. All ELISAs were developed with TMB substrate (KPL, Gaithersburg, Maryland, USA). Bis‐Tris precast gels (Biorad, Hercules, CA, USA) were used for all SDS–PAGE. Monoclonal anti‐FLAG M2 antibody (Sigma) and Aβ1‐16 antibody 6E10 (Covance) were used for Western blotting at 1:1,000 dilution. Anti‐CD74 In‐1 antibody (BD Bioscience, San Jose, CA, USA) was used for A20 cell lysate Western blotting at dilution of 1:1,000. MDA‐MB‐231 cell extracts were prepared by lysing cells in RIPA buffer containing protease and phosphatase inhibitors. The lysates were kept on ice for 30 min and vortexed every 10 min, and then centrifuged at 4°C for 10 min at 1,000 g. The supernatants were collected, and protein concentrations were determined by Bradford Assay. Pan‐NOTCH1 antibody (C‐20) (Santa Cruz Biotechnology) and cleaved NOTCH1 (Val1744) antibody ([…]) were used at 1:500 and 1:100 dilution in the test of endogenous NOTCH1 inhibition with β‐actin expression used as loading control. β‐actin antibody was used at 1:1,000 dilution (Sigma). Band intensities normalized for actin using densitometry analysis with ImageJ Software (NIH, USA).

Structure (SMILES)	IC50 [nM]
CN1C(=O)[C@@H](NC(=O)[C@H](CCC(F)(F)F)[C@H](CCC(F)(F)F)C(N)=O)N=C(c2ccccc2)c2ccccc21 [BMS‐906024]	0.29
O=C(O)CC[C@H]1CC[C@@](c2cc(F)ccc2F)(S(=O)(=O)c2ccc(Cl)cc2)CC1 [MK‐0752]	87.4
CCC[C@H](N[C@H]1CCc2cc(F)cc(F)c2C1)C(=O)Nc1cn(C(C)(C)CNCC(C)(C)C)cn1 [PF‐3084014]	0.6
CC(C)(C(=O)NCC(F)(F)C(F)(F)F)C(=O)N[C@@H]1C(=O)Nc2ccccc2-c2ccccc21 [RO4929097]	0.46
CC(C)[C@H](O)C(=O)N[C@@H](C)C(=O)N[C@@H]1C(=O)N(C)CCc2ccccc21 [Semagacestat]	7.02

system: cNOTCH1‐4sub; assay: Average of cell-based IC50s on cNOTCH1-4sub in H4 cells; design: species or system human; conditions: read-out: Average IC50s of each GSI on cNOTCH1‐4sub
Protocol: as §1, §2, §3, §4

Structure (SMILES)	IC50 [nM]
CN1C(=O)[C@@H](NC(=O)[C@H](CCC(F)(F)F)[C@H](CCC(F)(F)F)C(N)=O)N=C(c2ccccc2)c2ccccc21 [BMS‐906024]	0.57
CCC[C@H](N[C@H]1CCc2cc(F)cc(F)c2C1)C(=O)Nc1cn(C(C)(C)CNCC(C)(C)C)cn1 [PF‐3084014]	0.66
CC(C)(C(=O)NCC(F)(F)C(F)(F)F)C(=O)N[C@@H]1C(=O)Nc2ccccc2-c2ccccc21 [RO4929097]	6.48
CC(C)[C@H](O)C(=O)N[C@@H](C)C(=O)N[C@@H]1C(=O)N(C)CCc2ccccc21 [Semagacestat]	121

system: SPPL2a, SPPL2b, and SPP; assay: Cell-based SPPLs cleavage assay, HEK 293t cells co-transfected with FBA and SPPLs (ELISA); conditions: 1 μM, HEK 293t co-transfected with SPPLs and FBA
Protocol: It is known that SPP/SPPLs can be inhibited by select GSIs (Ran et al, 2015). Here, we tested the effect of various GSIs on the SPP/SPPL family members SPPL2a, SPPL2b, and SPP. We co‐transfected SPPLs with the BRI2 based chimeric SPP/SPPL substrate that we have referred to as FBA into HEK 293t cells. SPPL‐specific inhibitor (ZLL)2‐ketone was used as positive control. DAPT was not tested here as we and others have previously reported it had no effect on SPP activity at concentration up to 100 μM (Weihofen et al, 2003). […] Dose responses of BMS‐906024, RO4929097, and PF‐3084014 were performed with a similar strategy, but a stable SPPL2b/FBA overexpressing HEK 293 cell line was used instead of transient transfection (Fig 8B). […] Table 3 compares the GSIs’ potencies on γ‐secretase and SPPL2b. The average of IC50s on cNOTCH1sub, cNOTCH2sub, cNOTCH4sub, and APP was used as the GSI's potency on γ‐secretase.
SPPL2a, SPPL2b, SPP, and chimeric substrate FBA were generated as previously described (Ran et al, 2015). A20 cells (TIB‐208; ATCC, Manassas, VA, USA) were cultured in RPMI‐1640 medium (ATCC) supplied with 10% fetal bovine serum, 1% penicillin/streptomycin, and 0.05 mM 2‐mercaptoethanol (Life Technologies). Various concentrations of GSIs and (ZLL)2‐ketone as indicated in figures were applied to transfected HEK 293t cells at 70–90% confluence or A20 cells at a density of 5 × 10^5 cells/ml with fresh media in 48‐well format for 16 h. Cells and conditioned media were used for WB, IP, and ELISA.
as §4

Structure (SMILES)	SPPLs‐catalyzed cleavage of FBA substrate
CN1C(=O)[C@@H](NC(=O)[C@H](CCC(F)(F)F)[C@H](CCC(F)(F)F)C(N)=O)N=C(c2ccccc2)c2ccccc21 [BMS‐906024]	efficiently inhibited
O=C(O)CC[C@H]1CC[C@@](c2cc(F)ccc2F)(S(=O)(=O)c2ccc(Cl)cc2)CC1 [MK‐0752]	did not show significant inhibition
CCC[C@H](N[C@H]1CCc2cc(F)cc(F)c2C1)C(=O)Nc1cn(C(C)(C)CNCC(C)(C)C)cn1 [PF‐3084014]	mild inhibition
CC(C)(C(=O)NCC(F)(F)C(F)(F)F)C(=O)N[C@@H]1C(=O)Nc2ccccc2-c2ccccc21 [RO4929097]	efficiently inhibited
CC(C)[C@H](O)C(=O)N[C@@H](C)C(=O)N[C@@H]1C(=O)N(C)CCc2ccccc21 [Semagacestat]	did not show significant inhibition

system: NOTCH1; assay: Endogenous NOTCH1 cleavage inhibition in MDA-MB-231 cells (NICD Western blot after EDTA activation); format: cell-based; conditions: MDA-MB-231
Protocol: To extend the study to a more physiological system, we assessed endogenous NOTCH1 cleavage inhibition using the triple‐negative breast cancer line MDA‐MB‐231 (Fig 6A). Full‐length blots are shown in source data for Fig 6. NOTCH1 cleavage was detected by Western blotting using the Cell Signaling neo‐epitope NICD antibody. […] The inhibition of endogenous APP in MDA‐MB‐231 cells was also tested by detecting accumulation of APP COOH‐terminal fragments (APP‐CTFs). […] Figure 6D summarized the APP‐CTF band intensities normalized for DMSO group. The original blots are available in source data for Fig 6.
Short‐term endogenous NOTCH1 cleavage inhibition was tested in the triple‐negative breast cancer cell lines MDA‐MB‐231 (ATCC, Manassas, VA). Cells were plated in 60 mm dishes and maintained as monolayer cultures in DMEM medium supplemented with 10% FBS, 1% penicillin/streptomycin, 1% L‐glutamine (Life Technologies), and incubated at 37°C in a humidified 5% CO2 incubator. After the cells reached ~75% confluency, cultures were pretreated with GSIs for 1 h in DMEM at 37°C in a 5% CO2 incubator. GSIs were tested at concentrations of 0, 0.1, 0.5, 2.5, and 12.5 μM. Then, EDTA (5 mM, Life Technologies) was added to the cell cultures to induce Notch activation for 5 min. Following incubation, cell extracts were prepared by lysing cells in RIPA buffer (Santa Cruz Biotechnology) containing protease and phosphatase inhibitors. Western blotting was performed using Cleaved NOTCH1 (Val1744) antibody (Cell Signaling) with β‐actin (Santa Cruz Biotechnology) as loading control. Band intensities were normalized for actin using ImageJ Software (NIH, USA).
as §4

Structure (SMILES)	concentration reducing NICD to background levels or below [µM]
O=C(O)CC[C@H]1CC[C@@](c2cc(F)ccc2F)(S(=O)(=O)c2ccc(Cl)cc2)CC1 [MK‐0752]	≥ 0.5

same assay, conditions: MDA-MB-231, 100 nM

Structure (SMILES)	NICD levels at 100 nM
CN1C(=O)[C@@H](NC(=O)[C@H](CCC(F)(F)F)[C@H](CCC(F)(F)F)C(N)=O)N=C(c2ccccc2)c2ccccc21 [BMS‐906024]	reduced NICD to levels equal or lower than baseline
CCC[C@H](N[C@H]1CCc2cc(F)cc(F)c2C1)C(=O)Nc1cn(C(C)(C)CNCC(C)(C)C)cn1 [PF‐3084014]	reduced NICD to levels equal or lower than baseline
CC(C)(C(=O)NCC(F)(F)C(F)(F)F)C(=O)N[C@@H]1C(=O)Nc2ccccc2-c2ccccc21 [RO4929097]	reduced NICD to levels equal or lower than baseline

same assay, conditions: MDA-MB-231, 100 nM to 12.5 μM, 1 h pretreatment then 5 mM EDTA 5 min

Structure (SMILES)	NICD levels
CC(C)[C@H](O)C(=O)N[C@@H](C)C(=O)N[C@@H]1C(=O)N(C)CCc2ccccc21 [Semagacestat]	reduced NICD concentrations to near‐baseline levels at all concentrations tested

Source: paper PMC5494507, “γ‐Secretase inhibitors in cancer clinical trials are pharmacologically and functionally distinct” (EMBO Molecular Medicine, 2017)
